Laboratory results from patent publication US4459241A, “Compounds containing quaternary ammonium and methylenephosphonic acid groups” (The Dow Chemical Company, priority 1983, dated 1984).

Test: scale inhibition test with respect to calcium carbonate (soluble calcium retained, 24 h at 80° C.)
Type: physicochemical
Settings: 10 ppm based on active acid, 0.02M CaCl2 + 0.04M sodium bicarbonate/0.96M sodium chloride, 24-hour period, blank 12%
Protocol: To these solutions is added the candidate inhibitor in various concentrations. Fifty-ml samples of a 0.04M sodium bicarbonate/0.96M sodium chloride solution are then added with stirring. A total hardness determination is made on the mixture by adding excess standard EDTA to a sample and back titrating with standard Mg^++ solution in the presence of Eriochrome Black T indicator. The samples are placed in an 80° C. oven and 10-ml samples taken periodically from each bottle, filtered through a millipore filter, and the total hardness of the filtrates determined by titration. A blank with no inhibitor is run in an identical manner. The relative inhibition effects are shown by determining the amount of hardness (as soluble calcium) before and after heating for a 24-hour period. The amount of soluble calcium as a percent of that originally present is indicated as % inhibition.
All products and comparative runs were made using a concentration of 10 ppm based on active acid.

C[N+](C)(C)CC(O)CN(CCN(CP(=O)(O)O)CP(=O)(O)O)CP(=O)(O)O (stereo not shown) [Product Ex. 1]
% Inhibition (amount of soluble calcium as a percent of that originally present): 41.8%
